Reference: patent US10166226B2, “CGRP receptor antagonists” (Heptares Therapeutics Limited, priority 2015, dated 2019)
≈ marks a conversion by molar mass, not a printed value. Where two headings read alike, the source gives them in different places.

Legend:
[1] = target: Human CGRP receptors (consisting of CRLR and RAMP1) (Homo sapiens (Human), UniProt O60894+Q16602); assay: Radioligand binding assay (3H-telcagepant displacement); conditions: Sf21 cell membranes, 0.5 nM 3H-telcagepant, Ki by Cheng-Prussoff
Human CGRP receptors (consisting of CRLR and RAMP1), sequence (Q16602 23-461): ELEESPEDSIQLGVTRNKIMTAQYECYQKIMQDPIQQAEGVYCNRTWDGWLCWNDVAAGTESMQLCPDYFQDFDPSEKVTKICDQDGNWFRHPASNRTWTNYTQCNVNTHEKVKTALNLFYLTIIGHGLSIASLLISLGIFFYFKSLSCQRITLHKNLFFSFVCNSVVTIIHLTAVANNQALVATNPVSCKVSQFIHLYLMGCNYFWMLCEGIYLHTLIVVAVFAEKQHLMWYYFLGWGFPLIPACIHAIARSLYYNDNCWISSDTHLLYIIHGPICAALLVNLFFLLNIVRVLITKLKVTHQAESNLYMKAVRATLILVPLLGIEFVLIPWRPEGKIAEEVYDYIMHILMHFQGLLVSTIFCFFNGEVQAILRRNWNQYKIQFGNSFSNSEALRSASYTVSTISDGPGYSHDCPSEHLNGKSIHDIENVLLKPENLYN
Human CGRP receptors (consisting of CRLR and RAMP1), sequence (O60894 27-148): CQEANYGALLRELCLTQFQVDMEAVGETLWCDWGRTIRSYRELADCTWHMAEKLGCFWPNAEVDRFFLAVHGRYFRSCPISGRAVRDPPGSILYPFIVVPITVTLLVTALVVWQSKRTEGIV
Procedure: Human Calcitonin Receptor Like Receptor (CRLR) and human RAMP1 were cloned into Invitrogen's (ThermoFisher Scientific, UK) pFastBac dual expression vector. Transposition of CRLR/RAMP1 DNA was performed using Invitrogen's Bac-to-Bac Baculovirus Expression Systems. P0 baculovirus was generated by transfecting SF9 cells with bacmid DNA using Cellfectin® II transfection reagent (ThermoFisher Scientific, UK, catalog number 10362-100). Following P0 generation P1 virus was then generated ready for large scale infection and membrane preparation. Sf21 cells were grown in expression medium ESF921 (Expression Systems, USA, catalog number 96-001-01) supplemented with 10% heat-inactivated FBS and 1% Pen/Strep and were infected at a cell density of 2.5×10^6 cells/mL and an MOI of 2. Expression was carried out over 48 h in a shaking incubator set at 27° C. The cell culture was centrifuged at 2,500 rcf for 10 min at 4° C. The pellets were resuspended in cold PBS supplemented with Roche's Complete EDTA-free protease inhibitor cocktail tablets (Roche Applied Sciences, catalog number 05056489001), 1 mM PMSF and 1 mM EDTA. The resuspended cell paste was then centrifuged at 3,273 rcf for 12 min at 4° C. The supernatant was discarded and the pellet frozen at −80° C. The cell pellet from a 4 L culture was resuspended in buffer containing 50 mM Hepes pH 7.5, 150 mM NaCl, 8 Roche EDTA-free protease inhibitor cocktail tablets and 1 mM PMSF. The suspension was left stirring at rt for 1 h and then homogenised for 90 s at 9,500 rpm using a VDI 25 (VWR, USA) homogeniser. The cells were then lysed using a Microfluidizer processor M-110L Pneumatic (Microfluidics, USA). After lysis, the mixture was homogenised for 90 s at 9,500 rpm and then centrifuged at 335 rcf for 10 min. The supernatant was then further ultra-centrifuged at 42,000 rpm for 90 min. After ultra-centrifugation, the supernatant was discarded and the pellet was resuspended in 50 mL (25 mL for each 2 L culture) of buffer containing 50 mM Hepes pH 7.5, 150 mM NaCl, 3 Roche EDTA-free protease inhibitor cocktail tablets and 1 mM PMSF. The suspension was then homogenised for 90 s at 9,500 rpm. The resulting membranes were then stored at −80° C.
Human CGRP receptors (consisting of CRLR and RAMP1) expressed in insect Sf21 cell membrane homogenates were re-suspended in the binding buffer (10 mM HEPES, pH 7.4, 5 mM MgCl2, 0.2% BSA) to a final assay concentration of […]. Saturation isotherms were determined by the addition of various concentrations of ^3H-telcagepant (Ho et al, The Lancet, 2008, 372, 2115) (in a total reaction volume of 250 μL) for 60 min at room temperature. At the end of the incubation, membranes were filtered onto a unifilter, a 96-well white microplate with bonded GF/B filter pre-incubated with 0.5% PEI, with a Tomtec cell harvester and washed 5 times with distilled water. Non-specific binding (NSB) was measured in the presence of 10 nM MK-3207 hydrochloride (CAS No. 957116-20-0). Radioactivity on the filter was counted (1 min) on a microbeta counter after addition of 50 μL of scintillation fluid.

[2] = target: human CGRP receptor (Homo sapiens (Human), UniProt O60894+Q16602); assay: cAMP functional assay (HTRF) in SK-N-MC cells; assay type: cell-based; conditions: read-out: pKb average (converted)
human CGRP receptor, sequence (Q16602 23-461): as the sequence (Q16602 23-461) above
human CGRP receptor, sequence (O60894 27-148): as the sequence (O60894 27-148) above
Procedure: cAMP production following receptor activation was determined using the Homogeneous Time-Resolved Fluorescence (HTRF) cAMP dynamic-2 assay (Cisbio, France). The human neuroblastoma cell line SK-N-MC endogenously expressing the human CGRP receptor was seeded at a density of 12,500 cells/well in solid walled 96 well half area plates (Costar, Catalog Number 3688, Corning Life Sciences, Germany). After 16 h incubation at 37° C. media was removed and cells were incubated at 37° C. for 30 min in serum free media containing 500 μM IBMX (Tocris, Abingdon, UK, Catalog Number 2845) and increasing concentrations of test antagonist. Following this cells were challenged with an EC80 concentration of human CGRP (0.3 nM) for a further 30 min at 37° C. and then cAMP production was determined as manufacturer's instructions before plates were read on a PheraStar fluorescence plate reader (BMG LabTech, Germany). IC50 values were derived from the inhibition curve. The pIC50 values (where pIC50=−log10 IC50) were converted to a functional pKb value using a modified Cheng-Prussoff equation where Kd=agonist EC50 and L hot=agonist challenge concentration. The pKb values of certain compounds of the invention are detailed in Table 3.

[3] = Thermodynamic solubility profiling; assay type: physicochemical; conditions: aqueous buffer, thermodynamic from solid
Procedure: A 50 mM DMSO stock solution of test compound was prepared, and from this, a working solution of 1 mM was prepared by dilution with DMSO. The UV absorbance of working solution was scanned from 220 nm to 1000 nm to identify the wavelength maxima of test compound. The 1 mM working solution was then serially diluted in DMSO to different concentrations to determine linearity/calibration curve. […] The resulting solution was then kept on a RotoSpin shaker at 50 rpm for 24 h at rt before the solution was filtered using 0.45 micron PVDF injector filters in order to remove the insoluble fraction of the compound. Subsequently, 150 uL of the filtrate is taken for quantification using a UV spectrophotometer, acquiring the optical density of standard solutions and test compound at the same wavelength maxima. From the optical density of test compound the thermodynamic solubility is calculated using the linearity/calibration curve and expressed as micromolar (μM). Solubility profiles of certain compounds of the invention are detailed in Table 6.

[4] = Pharmacokinetic profiling in rat; assay type: in vivo, male Sprague Dawley rats; conditions: male, Sprague Dawley, plasma
Procedure: Prior to IN dosing rats were anaesthetised with an intramuscular dose of 25-30 mg/kg ketamine cocktail (ketamine, xylazine hydrochloride and acepromazine maleate in saline) and the dose is introduced over 20-30 s via a polyethylene PE-10 tube inserted approximately 5 mm into the nasal cavity of the rat.
(§1) Following dosing by the routes above blood samples were taken at several time points (typically pre-dose, 0.083, 0.25, 0.5 1, 2, 4, 8 and 24 h) via serial tail vein bleeds (rat) or cephalic or saphenous vein (monkey) from the animal and centrifuged to separate plasma for analysis by LC/MS/MS assay. WinNonlin v6.2 statistics software (Pharsight Corporation, California, USA) was used to generate pharmacokinetic parameters using the non-compartmental model.

[5] = Pharmacokinetic profiling in cynomolgus monkey; assay type: in vivo, male Cynomolgus Monkeys; conditions: male, plasma, 0.5 mg/kg, acidified saline; for clearance: cynomolgus monkey iv; for bioavailability: cynomolgus monkey sc
Procedure: as §1

[6] = PBS buffer pH 7.4, 24 h at rt, read-out: Thermodynamic solubility pH 7.4
[7] = Sodium Phosphate Buffer pH 6.0, 24 h at rt, read-out: Thermodynamic solubility pH 6

Compound	pKi average [1]	Kb [2]	solubility thermodynamic at 24 h [3, 6]	solubility thermodynamic at 24 h [3, 7]	bioavailability ([4]; inhaled or intranasal)	bioavailability ([4]; sc)	clearance [5]	bioavailability [5]
Cc1cc(C[C@@H](NC(=O)N2CCC(c3cc4ccccc4[nH]c3=O)CC2)C(=O)N2CCC(N3CCC(c4ncc[nH]4)CC3)CC2)cc2cn[nH]c12 [Example 1, N-[(2R)-1-[4-(1H-imidazol-2-yl)-1,4′-bipiperidin-1′-yl]-3-(7-methyl-1H-indazol-5-yl)-1-oxopropan-2-yl]-4-(2-oxo-1,2-dihydroquinolin-3-yl)piperidine-1-carboxamide]	10.3	200 pM						
Cc1nc[nH]c1C1CCN(C2CCN(C(=O)[C@@H](Cc3cc(C)c4[nH]ncc4c3)NC(=O)N3CCC(c4cc5ccccc5[nH]c4=O)CC3)CC2)CC1 [Example 2, N-[(2R)-1-[4-(4-methyl-1H-imidazol-5-yl)-1,4′-bipiperidin-1′-yl]-3-(7-methyl-1H-indazol-5-yl)-1-oxopropan-2-yl]-4-(2-oxo-1,2-dihydroquinolin-3-yl)piperidine-1-carboxamide]	10.1	316 pM	18 µM (≈ 12.7 µg/mL)	2040 µM (≈ 1440 µg/mL)	25%	69%	24 mL/min/kg	100%
CCCn1ccnc1C1CCN(C2CCN(C(=O)[C@@H](Cc3cc(C)c4[nH]ncc4c3)NC(=O)N3CCC(c4cc5ccccc5[nH]c4=O)CC3)CC2)CC1 [Example 3, N-{(2R)-3-(7-methyl-1H-indazol-5-yl)-1-oxo-1-[4-(1-propyl-1H-imidazol-2-yl)-1,4′-bipiperidin-1′-yl]propan-2-yl}-4-(2-oxo-1,2-dihydroquinolin-3-yl)piperidine-1-carboxamide]	9.8	398 pM	2 µM (≈ 1.46 µg/mL)	1250 µM (≈ 914 µg/mL)				
Cc1cc(C[C@@H](NC(=O)N2CCC(c3cc4ccccc4[nH]c3=O)CC2)C(=O)N2CCC(N3CCC(c4nncn4C)CC3)CC2)cc2cn[nH]c12 [Example 4, N-{(2R)-3-(7-methyl-1H-indazol-5-yl)-1-[4-(4-methyl-4H-1,2,4-triazol-3-yl)-1,4′-bipiperidin-1′-yl]-1-oxopropan-2-yl}-4-(2-oxo-1,2-dihydroquinolin-3-yl)piperidine-1-carboxamide]	10.0	631 pM	32 µM (≈ 22.6 µg/mL)	1590 µM (≈ 1120 µg/mL)	27%	82%	15 mL/min/kg	100%
Cc1cc(C[C@@H](NC(=O)N2CCC(c3cc4ccc(F)cc4[nH]c3=O)CC2)C(=O)N2CCC(N3CCC(c4nncn4C)CC3)CC2)cc2cn[nH]c12 [Example 5, 4-(7-fluoro-2-oxo-1,2-dihydroquinolin-3-yl)-N-{(2R)-3-(7-methyl-1H-indazol-5-yl)-1-[4-(4-methyl-4H-1,2,4-triazol-3-yl)-1,4′-bipiperidin-1′-yl]-1-oxopropan-2-yl}piperidine-1-carboxamide]	9.9	631 pM	239 µM (≈ 173 µg/mL)	1540 µM (≈ 1110 µg/mL)				
CCOC(=O)c1nnc(C2CCN(C3CCN(C(=O)[C@@H](Cc4cc(C)c5[nH]ncc5c4)NC(=O)N4CCC(c5cc6ccccc6[nH]c5=O)CC4)CC3)CC2)[nH]1 [Example 6, ethyl 5-{1′-[(2R)-3-(7-methyl-1H-indazol-5-yl)-2-({[4-(2-oxo-1,2-dihydroquinolin-3-yl)piperidin-1-yl]carbonyl}amino)propanoyl]-1,4′-bipiperidin-4-yl}-4H-1,2,4-triazole-3-carboxylate]	10.2	200 pM						
Cc1cc(C[C@@H](NC(=O)N2CCC(c3cc4ccccc4[nH]c3=O)CC2)C(=O)N2CCC(N3CCC(c4nnc[nH]4)CC3)CC2)cc2cn[nH]c12 [Example 7, N-{(2R)-3-(7-methyl-1H-indazol-5-yl)-1-oxo-1-[4-(4H-1,2,4-triazol-3-yl)-1,4′-bipiperidin-1′-yl]propan-2-yl}-4-(2-oxo-1,2-dihydroquinolin-3-yl)piperidine-1-carboxamide]	9.8	316 pM	342 µM (≈ 236 µg/mL)	785 µM (≈ 542 µg/mL)				
Cc1nnc(C2CCN(C3CCN(C(=O)[C@@H](Cc4cc(C)c5[nH]ncc5c4)NC(=O)N4CCC(c5cc6ccccc6[nH]c5=O)CC4)CC3)CC2)[nH]1 [Example 8, N-{(2R)-3-(7-methyl-1H-indazol-5-yl)-1-[4-(5-methyl-4H-1,2,4-triazol-3-yl)-1,4′-bipiperidin-1′-yl]-1-oxopropan-2-yl}-4-(2-oxo-1,2-dihydroquinolin-3-yl)piperidine-1-carboxamide]	10.0	316 pM	359 µM (≈ 253 µg/mL)	1220 µM (≈ 858 µg/mL)				
Cc1cc(C[C@@H](NC(=O)N2CCC(c3cc4ccccc4[nH]c3=O)CC2)C(=O)N2CCC(N3CCC(c4nnc(C(=O)O)[nH]4)CC3)CC2)cc2cn[nH]c12 [Example 9, 5-{1′-[(2R)-3-(7-methyl-1H-indazol-5-yl)-2-({[4-(2-oxo-1,2-dihydroquinolin-3-yl)piperidin-1-yl]carbonyl}amino)propanoyl]-1,4′-bipiperidin-4-yl}-4H-1,2,4-triazole-3-carboxylic Acid]	10.3	398 pM						
NCCCC[C@H](NC(=O)[C@@H](Cc1cc(Br)c(O)c(Br)c1)NC(=O)N1CCC(N2Cc3ccccc3NC2=O)CC1)C(=O)N1CCN(c2ccncc2)CC1 [olcegepant, reference compound]			431 µM (≈ 375 µg/mL)	150 µM (≈ 130 µg/mL)	8%	48%		
